This note sets out measurements from BindingDB's records for doi:10.1021/cb4002602 (National University of Singapore, 2013).

Sequence of Protein disulfide-isomerase (Bos taurus) (P05307 whole entry, looked up): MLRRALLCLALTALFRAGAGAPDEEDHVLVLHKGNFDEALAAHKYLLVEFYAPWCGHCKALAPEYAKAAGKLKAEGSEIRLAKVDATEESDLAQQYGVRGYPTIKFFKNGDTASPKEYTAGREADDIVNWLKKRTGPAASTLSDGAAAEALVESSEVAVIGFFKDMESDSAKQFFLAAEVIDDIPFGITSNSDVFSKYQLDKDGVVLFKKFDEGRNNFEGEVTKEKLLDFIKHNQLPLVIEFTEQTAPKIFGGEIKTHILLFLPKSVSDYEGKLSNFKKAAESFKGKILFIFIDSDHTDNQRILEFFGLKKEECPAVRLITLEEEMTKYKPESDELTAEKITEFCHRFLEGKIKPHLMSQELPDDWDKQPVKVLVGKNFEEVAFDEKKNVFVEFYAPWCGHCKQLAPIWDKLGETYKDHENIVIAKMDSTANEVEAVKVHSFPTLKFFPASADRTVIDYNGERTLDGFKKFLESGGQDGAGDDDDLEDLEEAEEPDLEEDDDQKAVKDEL

The experiment has as its target Protein disulfide-isomerase (Bos taurus) (UniProt P05307). In words: The assay was carried out in 384-well plates according to literature procedures [46]. Each well contained 100mM sodium phosphate and 0.2mM EDTA pH 7.0. 10ng PDI was pre-incubated with various concentration of probes (4% DMSO) in 20uL buffer for 30 min at 37 degrees Celsius, followed by the addition of insulin (0.16mM final concentration) and DDT (1mM.
As usually defined, the IC50 is the concentration that gives 50% inhibition. A low value points to inhibition by little substance. The compound `COC(=O)C1(C)c2[nH]c3ccccc3c2CCN1C(=O)CCl` (stereo not drawn) [16F16] yielded an IC50 of 74 µM. Compound `C#CCCNC(=O)[C@H](Cc1ccc(OS(=O)(=O)C=C)cc1)NC(=O)[C@H](Cc1ccccc1)NC(=O)OC(C)(C)C` [PDI inhibitor P1] registered a half-inhibitory concentration (IC50) of 1.7 µM. The figure for `C#CCCNC(=O)[C@H](Cc1cc(=O)oc2cc(OS(=O)(=O)C=C)ccc12)NC(=O)[C@H](Cc1ccccc1)NC(=O)OC(C)(C)C` [PDI inhibitor P2] is 1.8 µM. The figure for `C#CCNC(=O)[C@H](Cc1ccc(OS(=O)(=O)C=C)cc1)NC(=O)[C@H](Cc1ccccc1)NC(=O)OC(C)(C)C` [PDI inhibitor P6] is 1.9 µM. `C#CCNC(=O)[C@H](Cc1ccc(OS(=O)(=O)C=C)cc1)NC(=O)c1ccc(C)cc1C` [PDI inhibitor P7] returned a concentration for half-maximal inhibition (IC50) of 3.1 µM. Regarding `C#CCNC(=O)[C@H](Cc1ccc(OS(=O)(=O)C=C)cc1)NC(=O)c1ccc2ccccc2c1` [PDI inhibitor P8], the half-maximal inhibitory concentration (IC50) came to 2.7 µM. The figure for `C#CCNC(=O)[C@H](Cc1ccc(OS(=O)(=O)C=C)cc1)NC(=O)c1ccc(OC)cc1` [PDI inhibitor P9] is 5.3 µM; for `C#CCNC(=O)[C@H](Cc1ccc(OS(=O)(=O)C=C)cc1)NC(=O)C1(c2ccccc2)CC1` [PDI inhibitor P10] it is 2.1 µM.

Regarding `C=CS(=O)(=O)Oc1ccc(C[C@H](NC(=O)[C@H](Cc2ccccc2)NC(=O)OC(C)(C)C)C(=O)NCCNC(=O)CCCC[C@@H]2SCC3NC(=O)NC32)cc1` (stereo partly drawn) [PDI inhibitor P11], 1.1 µM corresponded to half-maximal inhibition (IC50). The compound `C#CCNC(=O)[C@H](Cc1ccc(OS(=O)(=O)C=C)cc1)NC(=O)C(C)(C)CC` [PDI inhibitor P12] displayed an IC50 of 3.2 µM. To `C#CCNC(=O)[C@H](Cc1ccc(OS(=O)(=O)C=C)cc1)NC(=O)c1c(F)c(F)c(F)c(F)c1F` [PDI inhibitor P13] belongs 2.5 µM; to `C#CCNC(=O)[C@H](Cc1ccc(OS(=O)(=O)C=C)cc1)NC(=O)c1ccc(F)c(C(F)(F)F)c1` [PDI inhibitor P14], 1 µM; to `C#CCNC(=O)[C@H](Cc1ccc(OS(=O)(=O)C=C)cc1)NC(=O)c1ccc(CC)cc1` [PDI inhibitor P15], 1.1 µM. With `C#CCNC(=O)[C@H](Cc1ccc(OS(=O)(=O)C=C)cc1)NC(=O)C1(C)CCCCC1` [PDI inhibitor P16], the 50% inhibitory concentration (IC50) amounted to 2.3 µM.

Consider `C#CCNC(=O)[C@H](Cc1ccc(OS(=O)(=O)C=C)cc1)NC(=O)CCc1ccc(OC)cc1` [PDI inhibitor P17], for which the IC50 turned out to be 3.3 µM.

The compound `C#CCNC(=O)[C@H](Cc1ccc(OS(=O)(=O)C=C)cc1)NC(=O)c1ccc(F)cc1Cl` [PDI inhibitor P18] had an IC50 of 2.8 µM. The figure for `C#CCNC(=O)[C@H](Cc1ccc(OS(=O)(=O)C=C)cc1)NC(=O)C1(C)CC1(Cl)Cl` (stereo partly drawn) [PDI inhibitor P19] is 2.5 µM. With `C#CCNC(=O)[C@H](Cc1ccc(OS(=O)(=O)C=C)cc1)NC(=O)C(Cl)CC` (stereo partly drawn) [PDI inhibitor P20], the half-maximal inhibitory concentration (IC50) worked out at 5.7 µM.

Turning to `C#CCNC(=O)[C@H](Cc1ccc(OS(=O)(=O)C=C)cc1)NC(=O)c1ccc(C)c(F)c1` [PDI inhibitor P21], the concentration for half-maximal inhibition (IC50) amounted to 2.5 µM. Compound `C#CCNC(=O)[C@H](Cc1ccc(OS(=O)(=O)C=C)cc1)NC(=O)c1cc(F)c(F)c(OC)c1F` [PDI inhibitor P22] returned a half-maximal inhibitory concentration (IC50) of 1.4 µM. To `C#CCNC(=O)[C@H](Cc1ccc(OS(=O)(=O)C=C)cc1)NC(=O)C(=O)c1ccccc1` [PDI inhibitor P23] belongs 1.8 µM; to `C#CCNC(=O)[C@H](Cc1ccc(OS(=O)(=O)C=C)cc1)NC(=O)CCc1ccccc1` [PDI inhibitor P24], 2.2 µM. The figure for `C#CCNC(=O)[C@H](Cc1ccc(OS(=O)(=O)C=C)cc1)NC(=O)c1cc(OC)c(OC)cc1Br` [PDI inhibitor P25] is 3.4 µM.
